In patent US8716475B2, “2-aminopyrimidine modulators of the histamine H4 receptor” (Janssen Pharmaceutica NV, priority 2007, dated 2014):

Each compound was assayed against T1, human H4 receptor (Homo sapiens, UniProt Q9H3N8) (assay: Binding Assay on Recombinant Human Histamine H4 Receptor). Settings: Table 1; [3H] histamine competition binding, membranes of SK-N-MC cells transfected with human H4 receptor; average of results.
T1 construct: expressed in transfected cells
Experimental: Binding Assay on Recombinant Human Histamine H4 Receptor.
Cell pellets from SK-N-MC cells stably or transiently transfected with human H4 receptor were used for the binding assays. Cell pellets were homogenized in 50 mM Tris/5 mM EDTA buffer and supernatants from an 800g spin were collected and recentrifuged at 30,000g for 30 min. Pellets were rehomogenized in 50 mM Tris/5 mM EDTA buffer. […] Compounds were tested in free base, hydrochloride salt, or trifluoroacetic acid form. Nonspecific binding was defined with 100 μM cold histamine. […] Membranes were harvested by rapid filtration using the 96 well Brandel system or a cell harvester using a Whatman GF/C filter or filter plates treated with 0.5% polyethylenimine (PEI), and washed 4 times with ice-cold 50 mM Tris/5 mM EDTA buffer. Filters were then dried, mixed with scintillant and radioactive counts were determined. […] Data marked with an asterisk (*) were obtained by the cell harvester method. Where activity is shown as greater than (>) a particular value, the value is the highest concentration tested.

T1 sequence (Q9H3N8 whole entry): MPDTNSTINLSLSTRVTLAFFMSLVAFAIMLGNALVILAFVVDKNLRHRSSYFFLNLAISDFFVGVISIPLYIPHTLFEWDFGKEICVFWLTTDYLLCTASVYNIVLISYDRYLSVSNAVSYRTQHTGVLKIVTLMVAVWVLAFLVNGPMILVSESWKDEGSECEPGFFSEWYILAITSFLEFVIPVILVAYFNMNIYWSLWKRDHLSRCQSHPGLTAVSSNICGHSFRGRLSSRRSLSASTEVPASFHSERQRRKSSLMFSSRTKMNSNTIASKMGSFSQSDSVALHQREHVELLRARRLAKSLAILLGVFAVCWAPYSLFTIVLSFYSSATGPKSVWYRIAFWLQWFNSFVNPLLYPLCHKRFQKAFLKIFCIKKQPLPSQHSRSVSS

| SMILES | Ki [nM] |
| --- | --- |
| Nc1nc2c(c(N3C[C@H]4CCN[C@H]4C3)n1)CCCC2 [Example 70, (R,R)-4-(Hexahydro-pyrrolo[3,4-b]pyrrol-5-yl)-5,6,7,8-tetrahydro-quinazolin-2-ylamine] | 404 |
| Nc1nc2c(c(N3CC4CCCNC4C3)n1)CCCC2 (stereo not drawn) [Example 71, 4-(cis-Octahydro-pyrrolo[3,4-b]pyridin-6-yl)-5,6,7,8-tetrahydro-quinazolin-2-ylamine] | 5 |
| Nc1nc2c(c(N3C[C@H]4CCCN[C@H]4C3)n1)CCCC2 [Example 72, (R,R)-4-(Octahydro-pyrrolo[3,4-b]pyridin-6-yl)-5,6,7,8-tetrahydro-quinazolin-2-ylamine] | 14 |
| Nc1nc2c(c(N3C[C@@H]4C[C@H]3CN4)n1)CCCC2 [Example 73, (S,S)-4-(2,5-Diaza-bicyclo[2.2.1]hept-2-yl)-5,6,7,8-tetrahydro-quinazolin-2-ylamine] | > 10000 |
| CN1CCN(c2nc(N)nc3c2CCC3)CC1 [Example 74, 4-(4-Methyl-piperazin-1-yl)-6,7-dihydro-5H-cyclopentapyrimidin-2-ylamine] | 76 |
| CN[C@@H]1CCN(c2nc(N)nc3c2CCC3)C1 [Example 75, (R)-4-(3-Methylamino-pyrrolidin-1-yl)-6,7-dihydro-5H-cyclopentapyrimidin-2-ylamine] | 159 |

Same assay, conditions: Table 2, data marked with an asterisk (*): obtained by the cell harvester method; [3H] histamine competition binding, SK-N-MC membranes

| SMILES | Ki [nM] |
| --- | --- |
| CC(C)c1cc(N2CCN(C)CC2)nc(N)n1 [Example 95, 4-Isopropyl-6-(4-methyl-piperazin-1-yl)-pyrimidin-2-ylamine] | 8 |
| CCCCc1nc(N)nc(N2CC(N)C2)c1OC [Example 103, 4-(3-Amino-azetidin-1-yl)-6-butyl-5-methoxy-pyrimidin-2-ylamine] | 22 |
| CCCCc1nc(N)nc(N2CC[C@@H](N)C2)c1OC [Example 104, (R)-4-(3-Amino-pyrrolidin-1-yl)-6-butyl-5-methoxy-pyrimidin-2-ylamine] | 96 |
| CCCCc1nc(N)nc(N2CC[C@@H](NC)C2)c1OC [Example 106, (R)-4-Butyl-5-methoxy-6-(3-methylamino-pyrrolidin-1-yl)-pyrimidin-2-ylamine] | 39 |
| CCCCc1nc(N)nc(N(C)CCN)c1OC [Example 109, N^4-(2-Amino-ethyl)-6-butyl-5-methoxy-N^4-methyl-pyrimidine-2,4-diamine] | 517 |
| COc1c(C2CCCC2)nc(N)nc1N(C)CCN [Example 115, N^4-(2-Amino-ethyl)-6-cyclopentyl-5-methoxy-N^4-methyl-pyrimidine-2,4-diamine] | 1430 |

Same assay, conditions: Table 2; [3H] histamine competition binding, membranes of SK-N-MC cells transfected with human H4 receptor; average of results

| SMILES | Ki [nM] |
| --- | --- |
| Nc1nc(C2CCCC2)cc(N2C[C@H]3CCCN[C@H]3C2)n1 [Example 81, (R,R)-4-Cyclopentyl-6-(octahydro-pyrrolo[3,4-b]pyridin-6-yl)-pyrimidin-2-ylamine] | 2 |
| CN1C[C@@H]2CN(c3cc(C4CCCC4)nc(N)n3)C[C@@H]2C1 [Example 82, 4-Cyclopentyl-6-(cis-5-methyl-hexahydro-pyrrolo[3,4-c]pyrrol-2-yl)-pyrimidin-2-ylamine] | 25 |
| Nc1nc(C2CCCC2)cc(N2C[C@H]3CCN[C@H]3C2)n1 [Example 83, (R,R)-4-Cyclopentyl-6-(hexahydro-pyrrolo[3,4-b]pyrrol-5-yl)-pyrimidin-2-ylamine] | 3 |
| Nc1nc(C2CCCC2)cc(N2CC(N)C2)n1 [Example 85, 4-(3-Amino-azetidin-1-yl)-6-cyclopentyl-pyrimidin-2-ylamine] | 6 |
| Nc1nc(C2CCCC2)cc(N2CC3CNCC3C2)n1 (stereo not shown) [Example 87, 4-Cyclopentyl-6-(hexahydro-pyrrolo[3,4-c]pyrrol-2-yl)-pyrimidin-2-ylamine] | 328 |
| CC(C)c1cc(NCCN)nc(N)n1 [Example 89, (2-Amino-ethyl)-6-isopropyl-pyrimidine-2,4-diamine] | 19 |
| CC(C)c1cc(N2CC(N)C2)nc(N)n1 [Example 90, 4-(3-Amino-azetidin-1-yl)-6-isopropyl-pyrimidin-2-ylamine] | 14 |
| CC(C)c1cc(N2CCC3(CCCN3)C2)nc(N)n1 (stereo not shown) [Example 91, 4-(1,7-Diaza-spiro[4.4]non-7-yl)-6-isopropyl-pyrimidin-2-ylamine] | 84 |
| CC(C)c1cc(N(C)CCN)nc(N)n1 [Example 92, N^4-(2-Amino-ethyl)-6-isopropyl-N^4-methyl-pyrimidine-2,4-diamine] | 281 |
| CN1CCN(c2nc(N)nc3c2COCC3)CC1 [Example 96, 4-(4-Methyl-piperazin-1-yl)-7,8-dihydro-5H-pyrano[4,3-d]pyrimidin-2-ylamine] | 35 |
| Nc1nc2c(c(N3C[C@H]4CCCN[C@H]4C3)n1)COCC2 [Example 97, (R,R)-4-(Octahydro-pyrrolo[3,4-b]pyridin-6-yl)-7,8-dihydro-5H-pyrano[4,3-d]pyrimidin-2-ylamine] | 20 |
| Nc1nc2c(c(N3CC[C@@H](N)C3)n1)COCC2 [Example 98, (R)-4-(3-Amino-pyrrolidin-1-yl)-7,8-dihydro-5H-pyrano[4,3-d]pyrimidin-2-ylamine] | 298 |
| CN[C@@H]1CCN(c2nc(N)nc3c2COCC3)C1 [Example 99, (R)-4-(3-Methylamino-pyrrolidin-1-yl)-7,8-dihydro-5H-pyrano[4,3-d]pyrimidin-2-ylamine] | 214 |
| Nc1nc2c(c(N3CCNCC3)n1)COCC2 [Example 100, 4-piperazin-1-yl-7,8-dihydro-5H-pyrano[4,3-d]pyrimidin-2-ylamine] | 262 |
| CCCCc1nc(N)nc(N2CCNCC2)c1OC [Example 101, 4-Butyl-5-methoxy-6-piperazin-1-yl-pyrimidin-2-ylamine] | 30 |
| CCCCc1nc(N)nc(N2CCCNCC2)c1OC [Example 102, 4-Butyl-6-[1,4]diazepan-1-yl-5-methoxy-pyrimidin-2-ylamine] | 181 |
| CCCCc1nc(N)nc(N2CC[C@H](N)C2)c1OC [Example 105, (S)-4-(3-Amino-pyrrolidin-1-yl)-6-butyl-5-methoxy-pyrimidin-2-ylamine] | 103 |

| SMILES | Ki [nM] |
| --- | --- |
| CCCCc1nc(N)nc(N2CC[C@H](NC)C2)c1OC [Example 107, (S)-4-Butyl-5-methoxy-6-(3-methylamino-pyrrolidin-1-yl)-pyrimidin-2-ylamine] | 104 |
| CCCCc1nc(N)nc(N2CCN(C)CC2)c1OC [Example 108, 4-Butyl-5-methoxy-6-(4-methyl-piperazin-1-yl)-pyrimidin-2-ylamine] | 84 |
| CCCCc1nc(N)nc(NCCN)c1OC [Example 110, N^4-(2-Amino-ethyl)-6-butyl-5-methoxy-pyrimidine-2,4-diamine] | 80 |
| COc1c(C2CCCC2)nc(N)nc1N1CC(N)C1 [Example 111, 4-(3-Amino-azetidin-1-yl)-6-cyclopentyl-5-methoxy-pyrimidin-2-ylamine] | 33 |
| COc1c(C2CCCC2)nc(N)nc1N1CCCNCC1 [Example 112, 4-Cyclopentyl-6-[1,4]diazepan-1-yl-5-methoxy-pyrimidin-2-ylamine] | 46 |
| COc1c(C2CCCC2)nc(N)nc1N1CC[C@@H](N)C1 [Example 113, (R)-4-(3-Amino-pyrrolidin-1-yl)-6-cyclopentyl-5-methoxy-pyrimidin-2-ylamine] | 136 |
| CN[C@H]1CCN(c2nc(N)nc(C3CCCC3)c2OC)C1 [Example 114, (S)-4-Cyclopentyl-5-methoxy-6-(3-methylamino-pyrrolidin-1-yl)-pyrimidin-2-ylamine] | 71 |
| COc1c(NCCN)nc(N)nc1C1CCCC1 [Example 116, N^4-(2-Amino-ethyl)-6-cyclopentyl-5-methoxy-pyrimidine-2,4-diamine] | 64 |
| COCc1cc(N2CCCNCC2)nc(N)n1 [Example 117, 4-[1,4]-Diazepan-1-yl-6-methoxymethyl-pyrimidin-2-ylamine] | 42 |
| COCc1cc(N2CC[C@H](N)C2)nc(N)n1 [Example 118, (S)-4-(3-Amino-pyrrolidin-1-yl)-6-methoxymethyl-pyrimidin-2-ylamine] | 242 |
| CN[C@H]1CCN(c2cc(COC)nc(N)n2)C1 [Example 119, (S)-4-Methoxymethyl-6-(3-methylamino-pyrrolidin-1-yl)-pyrimidin-2-ylamine] | 153 |
| CN1C[C@@H]2CN(c3cc(C4CC4)nc(N)n3)C[C@@H]2C1 [Example 120, 4-Cyclopropyl-6-(cis-5-methyl-hexahydro-pyrrolo[3,4-c]pyrrol-2-yl)-pyrimidin-2-ylamine] | 113 |
| Nc1nc(C2CC2)cc(N2CCNCC2)n1 [Example 121, 4-Cyclopropyl-6-piperazin-1-yl-pyrimidin-2-ylamine] | 3 |
| Nc1nc(C2CC2)cc(N2CC(N)C2)n1 [Example 122, 4-(3-Amino-azetidin-1-yl)-6-cyclopropyl-pyrimidin-2-ylamine] | 22 |
| Nc1nc(C2CC2)cc(N2CC[C@@H](N)C2)n1 [Example 123, (R)-4-(3-Amino-pyrrolidin-1-yl)-6-cyclopropyl-pyrimidin-2-ylamine] | 4 |
| Nc1nc(C2CC2)cc(N2C[C@H]3CNC[C@H]3C2)n1 [Example 124, 4-Cyclopropyl-6-(cis-hexahydro-pyrrolo[3,4-c]pyrrol-2-yl)-pyrimidin-2-ylamine] | > 10000 |
| CN[C@H]1CCN(c2cc(C(C)C)nc(N)n2)C1 [Example 125, (S)-4-Isopropyl-6-(3-methylamino-pyrrolidin-1-yl)-pyrimidin-2-ylamine] | 7 |
